Active and inactive are the calls of the source. The calls are words filed in the database; no cut-off is given here.
Assays:
[1] = Cytotoxicity against human HCT116 cells; format: functional; conditions: HCT-116
[2] = Cytotoxicity against human HCT15 cells; format: functional; conditions: HCT-15
[3] = system: HT-29; assay: Cytotoxicity against human HT-29 cells; format: functional
[4] = system: KM12; assay: Cytotoxicity against human KM12 cells; format: functional
[5] = system: SW-620; assay: Cytotoxicity against human SW620 cells; format: functional
[6] = system: SF-268; assay: Cytotoxicity against human SF268 cells; format: functional
[7] = system: SF-539; assay: Cytotoxicity against human SF539 cells; format: functional; conditions: read-out: pGI50 (converted)
[8] = system: SNB-19; assay: Cytotoxicity against human SNB19 cells; format: functional
[9] = system: U-251; assay: Cytotoxicity against human U251 cells; format: functional
[10] = system: LOX IMVI; assay: Cytotoxicity against human LOXIMVI cells; format: functional
[11] = system: Malme-3M; assay: Cytotoxicity against human MALME-3M cells; format: functional
[12] = system: M14; assay: Cytotoxicity against human M14 cells; format: functional
[13] = system: MDA-MB-435; assay: Cytotoxicity against human MDA-MB-435 cells; format: functional; conditions: read-out: pGI50 (converted)
[14] = system: SK-MEL-2; assay: Cytotoxicity against human SK-MEL-2 cells; format: functional
[15] = system: SK-MEL-28; assay: Cytotoxicity against human SK-MEL-28 cells; format: functional
[16] = system: SK-MEL-5; assay: Cytotoxicity against human SK-MEL-5 cells; format: functional
[17] = Cytotoxicity against human UACC257 cells; format: functional; conditions: UACC-257
[18] = Cytotoxicity against human UACC62 cells; format: functional; conditions: UACC-62
[19] = system: IGROV-1; assay: Cytotoxicity against human IGROV1 cells; format: functional
[20] = Cytotoxicity against human OVCAR3 cells; format: functional; conditions: OVCAR-3, read-out: pGI50 (converted)
[21] = Cytotoxicity against human OVCAR4 cells; format: functional; conditions: OVCAR-4
[22] = Cytotoxicity against human OVCAR5 cells; format: functional; conditions: OVCAR-5
[23] = Cytotoxicity against human OVCAR8 cells; format: functional; conditions: OVCAR-8, read-out: pGI50 (converted)
[24] = Cytotoxicity against human NCI-ADR-RES cells; format: functional; conditions: read-out: pGI50 (converted)
[25] = Cytotoxicity against human SKOV3 cells; format: functional; conditions: SK-OV-3
[26] = system: 786-0; assay: Cytotoxicity against human 786-0 cells; format: functional
[27] = system: A498; assay: Cytotoxicity against human A498 cells; format: functional
[28] = system: ACHN; assay: Cytotoxicity against human ACHN cells; format: functional
[29] = system: RXF 393; assay: Cytotoxicity against human RXF393 cells; format: functional; conditions: read-out: pGI50 (converted)
[30] = system: SN12C; assay: Cytotoxicity against human SN12C cells; format: functional
[31] = system: TK-10; assay: Cytotoxicity against human TK10 cells; format: functional
[32] = Cytotoxicity against human UO31 cells; format: functional; conditions: UO-31
[33] = Cytotoxicity against human PC3 cells; format: functional; conditions: PC-3
[34] = system: DU-145; assay: Cytotoxicity against human DU145 cells; format: functional
[35] = system: MCF7; assay: Cytotoxicity against human MCF7 cells; format: functional
[36] = system: MDA-MB-231; assay: Cytotoxicity against human MDA-MB-231 cells; format: functional
[37] = Cytotoxicity against human Hs578T cells; format: functional; conditions: Hs-578T
[38] = system: BT-549; assay: Cytotoxicity against human BT549 cells; format: functional
[39] = system: T47D; assay: Cytotoxicity against human T47D cells; format: functional
[40] = system: MDA-MB-468; assay: Cytotoxicity against human MDA-MB-468 cells; format: functional
[41] = system: SF-295; assay: Cytotoxicity against human SF295 cells; format: functional
[42] = system: SNB-75; assay: Cytotoxicity against human SNB75 cells; format: functional
[43] = system: HOP-92; assay: Cytotoxicity against human HOP92 cells; format: functional
[44] = system: Paracentrotus lividus; assay: Antiproliferative activity in sea urchin embryo assessed as antimitotic activity by measuring cleavage alteration exposed for 8 to 20 mins after fertilization and 45 to 55 mins before first mitotic cycle completion measured 2.5 to […] after fertilization; format: functional
[45] = system: Paracentrotus lividus; assay: Antiproliferative activity in sea urchin embryo assessed as antimitotic activity by measuring cleavage arrest exposed for 8 to 20 mins after fertilization and 45 to 55 mins before first mitotic cycle completion measured 2.5 to […] after fertilization; format: functional
[46] = system: Paracentrotus lividus; assay: Antiproliferative activity in sea urchin embryo assessed as destabilization of microtubule by measuring embryo spinning after 15 mins to 20 hrs; format: functional
[47] = system: Paracentrotus lividus; assay: Antiproliferative activity in sea urchin embryo assessed as destabilization of microtubule by tuberculate eggs after 15 mins to 20 hrs; format: functional, organism-based
[48] = Cytotoxicity against human NCI60 cells; format: functional
[49] = system: CCRF-CEM; assay: Cytotoxicity against human CCRF-CEM cells; format: functional
[50] = system: HL-60(TB); assay: Cytotoxicity against human HL-60(TB) cells; format: functional
[51] = system: K562; assay: Cytotoxicity against human K562 cells; format: functional
[52] = system: MOLT-4; assay: Cytotoxicity against human MOLT4 cells; format: functional
[53] = system: RPMI-8226; assay: Cytotoxicity against human RPMI8226 cells; format: functional
[54] = system: SR; assay: Cytotoxicity against human SR cells; format: functional
[55] = system: A549; assay: Cytotoxicity against human A549 cells; format: functional
[56] = system: HOP-62; assay: Cytotoxicity against human HOP62 cells; format: functional
[57] = system: NCI-H226; assay: Cytotoxicity against human NCI-H226 cells; format: functional
[58] = system: NCI-H23; assay: Cytotoxicity against human NCI-H23 cells; format: functional
[59] = system: NCI-H322M; assay: Cytotoxicity against human NCI-H322M cells; format: functional
[60] = system: NCI-H460; assay: Cytotoxicity against human NCI-H460 cells; format: functional
[61] = system: NCI-H522; assay: Cytotoxicity against human NCI-H522 cells; format: functional
[62] = system: COLO 205; assay: Cytotoxicity against human COLO205 cells; format: functional
[63] = system: HCC 2998; assay: Cytotoxicity against human HCC2998 cells; format: functional

COc1cc(Cn2c(-c3nonc3N)nc3ccccc32)ccc1C
GI50 [1]: 513 nM
GI50 [2]: 457 nM
GI50 [3]: 363 nM
GI50 [4]: 437 nM
GI50 [5]: 331 nM
GI50 [6]: 776 nM
GI50 [7]: 200 nM
GI50 [8]: 724 nM
GI50 [9]: 537 nM
GI50 [10]: 661 nM
GI50 [11]: 525 nM
GI50 [12]: 550 nM
GI50 [13]: 170 nM
GI50 [14]: 407 nM
GI50 [15]: 794 nM
GI50 [16]: 372 nM
GI50 [17]: 417 nM
GI50 [18]: 617 nM
GI50 [19]: 724 nM
GI50 [20]: 309 nM
GI50 [21]: 646 nM
GI50 [22]: 776 nM
GI50 [23]: 759 nM
GI50 [24]: 389 nM
GI50 [25]: 537 nM
GI50 [26]: 646 nM
GI50 [27]: 89.1 nM
GI50 [28]: 724 nM
GI50 [29]: 269 nM
GI50 [30]: 676 nM
GI50 [31]: 1410 nM
GI50 [32]: 575 nM
GI50 [33]: 339 nM
GI50 [34]: 513 nM
GI50 [35]: 389 nM
GI50 [36]: 1450 nM
GI50 [37]: 288 nM
GI50 [38]: 513 nM
GI50 [39]: 575 nM
GI50 [40]: 229 nM
GI50 [41]: 389 nM
GI50 [42]: 263 nM
GI50 [43]: 363 nM
EC [44]: 0.2 µM
EC [45]: 2 µM
EC [46]: >4 µM
Activity [47]: Active
GI50 [48]: 479 nM
GI50 [49]: 380 nM
GI50 [50]: 275 nM
GI50 [51]: 389 nM
GI50 [52]: 646 nM
GI50 [53]: 447 nM
GI50 [54]: 389 nM
GI50 [55]: 562 nM
GI50 [56]: 617 nM
GI50 [57]: 955 nM
GI50 [58]: 1150 nM
GI50 [59]: 537 nM
GI50 [60]: 355 nM
GI50 [61]: 251 nM
GI50 [62]: 372 nM
GI50 [63]: 1450 nM
